Assay results reported in patent US10202370B2, “Benzimidazole derivatives as selective proteine kinase inhibitors” (AB SCIENCE, priority 2013, dated 2019).

What follows are molecules tested against c-kit WT (Homo sapiens (Human), UniProt P10721) (assay: Proliferation assay (CellTiter-Blue) on BaF3 Kit WT cell line). Details: BaF3 Kit WT cell line (murine Ba/F3 expressing Human Kit WT, with murine SCF), 48 hours.
Type: cell-based
Protocol: Procedures of C-Kit WT Inhibition Assays:
Colorimetric cell proliferation and viability assay (reagent CellTiter-Blue purchased from Promega cat N°G8081) was performed on BaF3 Kit WT cell line.
A total of 2.10^4 cells/50 μl were seeded per well of a 96-wells plate. Treatment was initiated by addition of a 2× drug solution of ½ serial dilutions ranging from 0 to 10 μM. After incubating for 48 hours at 37° C., 10 μl of a ½ dilution of CellTiter-Blue reagent was added to each well and the plates were returned to the incubator for an additional 4 hours. The fluorescence intensity from the CellTiter-Blue reagent is proportional to the number of viable cells and data were recorded (544Ex/590Em) using a POLARstar OMEGA microplate reader (BMG LabteckSarl). A background control without cells was used as a blank. The positive control of the assay corresponds to the cell proliferation obtained in the absence of drug treatment (100% proliferation). Each sample was done in triplicate. The results were expressed as a percentage of the proliferation obtained in absence of treatment. All drugs were prepared as 20 mM stock solutions in DMSO and conserved at −80° C. Drug dilutions were made fresh in medium before each experiment. A DMSO control was included in each experiment.
The cell line expressing Human Kit WT was derived from the murine IL3-dependent Ba/F3 proB lymphoid cells. Ba/F3 Kit WT cells were maintained in RPMI medium containing 10% FCS and supplemented with 250 ng/ml of recombinant murine SCF.

Sequence of c-kit WT (P10721 26-976): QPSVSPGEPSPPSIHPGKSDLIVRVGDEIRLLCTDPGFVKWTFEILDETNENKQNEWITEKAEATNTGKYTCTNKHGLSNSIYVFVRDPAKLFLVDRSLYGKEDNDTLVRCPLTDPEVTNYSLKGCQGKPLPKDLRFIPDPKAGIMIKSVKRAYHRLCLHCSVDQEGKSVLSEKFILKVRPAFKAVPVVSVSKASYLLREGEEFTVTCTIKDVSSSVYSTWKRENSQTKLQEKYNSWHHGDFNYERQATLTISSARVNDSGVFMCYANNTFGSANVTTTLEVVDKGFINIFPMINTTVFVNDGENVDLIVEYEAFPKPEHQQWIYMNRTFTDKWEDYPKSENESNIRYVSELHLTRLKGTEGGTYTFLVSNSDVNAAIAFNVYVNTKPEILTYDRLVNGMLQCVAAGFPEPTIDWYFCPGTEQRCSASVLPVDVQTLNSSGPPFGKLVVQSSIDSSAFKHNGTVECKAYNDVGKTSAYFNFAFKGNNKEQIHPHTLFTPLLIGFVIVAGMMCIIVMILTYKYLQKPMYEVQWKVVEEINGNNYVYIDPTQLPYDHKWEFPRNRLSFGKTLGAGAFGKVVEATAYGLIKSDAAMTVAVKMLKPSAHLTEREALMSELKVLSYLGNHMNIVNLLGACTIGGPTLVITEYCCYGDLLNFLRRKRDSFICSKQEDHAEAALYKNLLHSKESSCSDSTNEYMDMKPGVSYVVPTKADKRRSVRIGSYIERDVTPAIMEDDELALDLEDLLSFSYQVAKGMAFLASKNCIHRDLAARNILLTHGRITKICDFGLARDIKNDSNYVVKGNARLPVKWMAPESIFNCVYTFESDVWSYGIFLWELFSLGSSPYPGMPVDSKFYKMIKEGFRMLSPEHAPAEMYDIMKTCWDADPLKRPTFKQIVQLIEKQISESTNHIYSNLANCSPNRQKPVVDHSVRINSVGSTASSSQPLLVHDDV

`Cc1cc2nc(-c3cccc(OC(F)(F)F)c3)[nH]c2cc1Nc1nccc(-c2cccnc2)n1` [Compound 037, [6-Methyl-2-(3-trifluoromethoxy-phenyl)-3H-benzoimidazol-5-yl]-(4-pyridin-3-yl-pyrimidin-2-yl)-amine] and `Cc1cc2nc(-c3cccc(C(F)(F)F)c3)[nH]c2cc1Nc1nccc(-c2cccnc2)n1` [Compound 008] cannot be ordered by IC50: 1 to 10 µM for the first, ≤ 1 µM for the second.

`FC(F)(F)Oc1cccc(-c2nc3cc(Nc4nc(-c5cccnc5)cs4)ccc3[nH]2)c1` [Compound 089, (4-Pyridin-3-yl-thiazol-2-yl)-[2-(3-trifluoromethoxy-phenyl)-1H-benzoimidazol-5-yl]-amine] and `FC(F)(F)c1cccc(-c2nc3cc(Nc4nc(-c5cccnc5)cs4)ccc3[nH]2)c1` [Compound 088, (4-Pyridin-3-yl-thiazol-2-yl)-[2-(3-trifluoromethyl-phenyl)-1H-benzoimidazol-5-yl]-amine] cannot be ordered by IC50: ≤ 1 µM for the first, 1 to 10 µM for the second.

`Cc1cc2nc(-c3cccc(C(F)F)c3)[nH]c2cc1Nc1nc(-c2cccnc2)cs1` [Compound 025, [2-(3-Difluoromethyl-phenyl)-6-methyl-3H-benzoimidazol-5-yl]-(4-pyridin-3-yl-thiazol-2-yl)-amine] and `Cc1cc2nc(-c3cccc(C(F)F)c3)[nH]c2cc1Nc1nc(-c2ccncc2)cs1` [Compound 045, [2-(3-Difluoromethyl-phenyl)-6-methyl-3H-benzoimidazol-5-yl]-(4-pyridin-4-yl-thiazol-2-yl)-amine] cannot be ordered by IC50: ≤ 1 µM for the first, ≤ 1 µM for the second.

`Cc1cc2[nH]c(-c3cccc(C(C)(C)C)c3)nc2cc1Nc1nc(-c2ccc(C#N)cc2)cs1` [Compound 154, 4-{2-[2-(3-tert-Butyl-phenyl)-6-methyl-1H-benzoimidazol-5-ylamino]-thiazol-4-yl}-benzonitrile] and `Cc1cc2[nH]c(-c3cccc(C(F)(F)F)c3)nc2cc1Nc1nc(-c2cccc(C#N)c2)cs1` [Compound 130, 3-{2-[6-Methyl-2-(3-trifluoromethyl-phenyl)-1H-benzoimidazol-5-ylamino]-thiazol-4-yl}-benzonitrile] cannot be ordered by IC50: ≤ 1 µM for the first, ≤ 1 µM for the second.

`Cc1cc2c(cc1Nc1nc(-c3cccnc3)cs1)nc(-c1ccc(C(F)F)cc1)n2C` [Compound 093, [2-(4-Difluoromethyl-phenyl)-1,6-dimethyl-1H-benzoimidazol-5-yl]-(4-pyridin-3-yl-thiazol-2-yl)-amine] and `Cc1cc2c(cc1Nc1nc(-c3cccnc3)cs1)nc(-c1cccc(C(F)(F)F)c1)n2C` [Compound 085, [1,6-Dimethyl-2-(3-trifluoromethyl-phenyl)-1H-benzoimidazol-5-yl]-(4-pyridin-3-yl-thiazol-2-yl)-amine] cannot be ordered by IC50: ≤ 1 µM for the first, ≤ 1 µM for the second.

`Cc1cc2nc(Cc3ccc(C(F)(F)F)cc3)[nH]c2cc1Nc1ncc(-c2ccncc2)o1` [Compound 054, [6-Methyl-2-(4-trifluoromethyl-benzyl)-3H-benzoimidazol-5-yl]-(5-pyridin-4-yl-oxazol-2-yl)-amine] and `Cc1cc2nc(-c3ccc(C(F)(F)F)cc3)[nH]c2cc1Nc1nc(-c2ccncc2)cs1` [Compound 050, [6-Methyl-2-(4-trifluoromethyl-phenyl)-3H-benzoimidazol-5-yl]-(4-pyridin-4-yl-thiazol-2-yl)-amine] cannot be ordered by IC50: 1 to 10 µM for the first, ≤ 1 µM for the second.

`Cc1cc2nc(-c3ccc(C(F)(F)F)cc3)[nH]c2cc1Nc1nc(-c2ccc(C(N)=O)cc2)cs1` [Compound 072, 4-{2-[6-Methyl-2-(4-trifluoromethyl-phenyl)-3H-benzoimidazol-5-ylamino]-thiazol-4-yl}-benzamide] and `Cc1cc2nc(-c3cccc(OC(F)(F)F)c3)[nH]c2cc1Nc1nc(-c2ccc(C(N)=O)cc2)cs1` [Compound 073, 4-{2-[6-Methyl-2-(3-trifluoromethoxy-phenyl)-3H-benzoimidazol-5-ylamino]-thiazol-4-yl}-benzamide] cannot be ordered by IC50: ≤ 1 µM for the first, ≤ 1 µM for the second.

`Cc1cc2nc(-c3cc(CN4CCCCC4)cc(C(F)(F)F)c3)[nH]c2cc1Nc1nc(-c2cccnc2)cs1` [Compound 024, [6-Methyl-2-(3-piperidin-1-ylmethyl-5-trifluoromethyl-phenyl)-3H-benzoimidazol-5-yl]-(4-pyridin-3-yl-thiazol-2-yl)-amine] and `Cc1cc2nc(-c3cccc(CN4CCN(C)CC4)c3)[nH]c2cc1Nc1nc(-c2ccncc2)cs1` [Compound 046, {6-Methyl-2-[3-(4-methyl-piperazin-1-ylmethyl)-phenyl]-1H-benzoimidazol-5-yl}-(4-pyridin-4-yl-thiazol-2-yl)-amine] cannot be ordered by IC50: ≤ 1 µM for the first, 1 to 10 µM for the second.

`Cc1cc2c(cc1Nc1nc(-c3cccnc3)cs1)nc(-c1cccc(OC(F)(F)F)c1)n2C` [Compound 086, [1,6-Dimethyl-2-(3-trifluoromethoxy-phenyl)-1H-benzoimidazol-5-yl]-(4-pyridin-3-yl-thiazol-2-yl)-amine] and `Cn1c(-c2cccc(C(F)(F)F)c2)nc2cc(Nc3nc(-c4cccnc4)cs3)ccc21` [Compound 091, [1-Methyl-2-(3-trifluoromethyl-phenyl)-1H-benzoimidazol-5-yl]-(4-pyridin-3-yl-thiazol-2-yl)-amine] cannot be ordered by IC50: ≤ 1 µM for the first, 1 to 10 µM for the second.

`Cn1c(-c2cccc(C(F)F)c2)nc2cc(Nc3nc(-c4cccnc4)cs3)ccc21` [Compound 090, [2-(3-Difluoromethyl-phenyl)-1-methyl-1H-benzoimidazol-5-yl]-(4-pyridin-3-yl-thiazol-2-yl)-amine] and `Cc1cc2c(cc1Nc1nc(-c3ccncc3)cs1)nc(-c1cccc(F)c1)n2C` [Compound 124, [2-(3-Fluoro-phenyl)-1,6-dimethyl-1H-benzoimidazol-5-yl]-(4-pyridin-4-yl-thiazol-2-yl)-amine] cannot be ordered by IC50: 1 to 10 µM for the first, ≤ 1 µM for the second.

`Cc1cc2nc(-c3cccc(CN4CCN(C)CC4)c3)[nH]c2cc1Nc1nccc(-c2cccnc2)n1` [Compound 043, {6-Methyl-2-[3-(4-methyl-piperazin-1-ylmethyl)-phenyl]-3H-benzoimidazol-5-yl}-(4-pyridin-3-yl-pyrimidin-2-yl)-amine] and `Cc1cc2nc(-c3cccc(N4CCN(C)CC4)c3)[nH]c2cc1Nc1nccc(-c2cccnc2)n1` [Compound 015, {6-Methyl-2-[3-(4-methyl-piperazin-1-yl)-phenyl]-3H-benzoimidazol-5-yl}-(4-pyridin-3-yl-pyrimidin-2-yl)-amine] fall in the same range of IC50: 1 to 10 µM for the first, 1 to 10 µM for the second.

`Cc1cccc(-c2nc3cc(C)c(Nc4nc(-c5ccncc5)cs4)cc3[nH]2)c1` [Compound 034, (6-Methyl-2-m-tolyl-3H-benzoimidazol-5-yl)-(4-pyridin-4-yl-thiazol-2-yl)-amine] and `Cc1cccc(-c2nc3cc(Nc4nc(-c5cccc(C#N)c5)cs4)c(C)cc3[nH]2)c1` [Compound 129, 3-[2-(6-Methyl-2-m-tolyl-1H-benzoimidazol-5-ylamino)-thiazol-4-yl]-benzonitrile] cannot be ordered by IC50: ≤ 1 µM for the first, ≤ 1 µM for the second.

`Cc1cc2nc(-c3ccc(Cl)cc3)[nH]c2cc1Nc1nc(-c2cccnc2)cs1` [Compound 059, [2-(4-Chloro-phenyl)-6-methyl-1H-benzoimidazol-5-yl]-(4-pyridin-3-yl-thiazol-2-yl)-amine] and `Cc1cc2nc(-c3cccc(C#N)c3)[nH]c2cc1Nc1nc(-c2cccnc2)cs1` [Compound 010, 3-[5-Methyl-6-(4-pyridin-3-yl-thiazol-2-ylamino)-1H-benzoimidazol-2-yl]-benzonitrile] cannot be ordered by IC50: 1 to 10 µM for the first, ≤ 1 µM for the second.

`Cc1cc2nc(-c3cccc(C(F)F)c3)[nH]c2cc1Nc1nc(-c2cncnc2)cs1` [Compound 061, [2-(3-Difluoromethyl-phenyl)-6-methyl-3H-benzoimidazol-5-yl]-(4-pyrimidin-5-yl-thiazol-2-yl)-amine] and `Cc1cc2nc(-c3cccc(Cl)c3)[nH]c2cc1Nc1nc(-c2cncnc2)cs1` [Compound 068, [2-(3-Chloro-phenyl)-6-methyl-1H-benzoimidazol-5-yl]-(4-pyrimidin-5-yl-thiazol-2-yl)-amine] cannot be ordered by IC50: ≤ 1 µM for the first, 1 to 10 µM for the second.

`Cc1cc2[nH]c(-c3cccc(C(F)F)c3)nc2cc1Nc1nc(-c2ccnc(Cl)c2)cs1` [Compound 108, [4-(2-Chloro-pyridin-4-yl)-thiazol-2-yl]-[2-(3-difluoromethyl-phenyl)-6-methyl-1H-benzoimidazol-5-yl]-amine] and `Cc1cc2[nH]c(-c3cccc(S(C)(=O)=O)c3)nc2cc1Nc1nc(-c2cccnc2)cs1` [Compound 121, [2-(3-Methanesulfonyl-phenyl)-6-methyl-1H-benzoimidazol-5-yl]-(4-pyridin-3-yl-thiazol-2-yl)-amine] cannot be ordered by IC50: ≤ 1 µM for the first, ≤ 1 µM for the second.

`Cc1cc2nc(-c3ccc(CN4CCN(C)CC4)cc3)[nH]c2cc1Nc1nc(-c2ccncc2)cs1` [Compound 048, {6-Methyl-2-[4-(4-methyl-piperazin-1-ylmethyl)-phenyl]-1H-benzoimidazol-5-yl}-(4-pyridin-4-yl-thiazol-2-yl)-amine] and `Cc1cc2nc(-c3cccc(N(C)C)c3)[nH]c2cc1Nc1nc(-c2cccnc2)cs1` [Compound 132, [2-(3-Dimethylamino-phenyl)-6-methyl-3H-benzoimidazol-5-yl]-(4-pyridin-3-yl-thiazol-2-yl)-amine] cannot be ordered by IC50: 1 to 10 µM for the first, ≤ 1 µM for the second.

`Cc1cc2nc(-c3cncc(C(F)(F)F)c3)[nH]c2cc1Nc1nccc(-c2cccnc2)n1` [Compound 042, [6-Methyl-2-(5-trifluoromethyl-pyridin-3-yl)-3H-benzoimidazol-5-yl]-(4-pyridin-3-yl-pyrimidin-2-yl)-amine] gave an IC50 of 1 to 10 µM.
